Key:
Assay in all cases: KINOMEscan competition binding
Conditions in all cases: compound 10.0 µM
CDK19 (human) = CDK19 (human) (UniProt Q9BWU1)
ADCK3 (human) = ADCK3 (human) (UniProt Q8NI60)
[1] = system: MET (human), P08581 [M1250T]
TEC (human) = TEC (human) (UniProt P42680)
MAP2K3 (human) = MAP2K3 (human) (UniProt P46734)
PAK6 (human) = PAK6 (human) (UniProt Q9NQU5)
EPHA8 (human) = EPHA8 (human) (UniProt P29322)
PLK4 (human) = PLK4 (human) (UniProt O00444)
RIOK2 (human) = RIOK2 (human) (UniProt Q9BVS4)
EPHA1 (human) = EPHA1 (human) (UniProt P21709)
ULK2 (human) = ULK2 (human) (UniProt Q8IYT8)
SGK110 (human) = SGK110 (human) (UniProt P0C264)
STK16 (human) = STK16 (human) (UniProt O75716)
Sequence of STK16 (human) (O75716 whole entry, looked up): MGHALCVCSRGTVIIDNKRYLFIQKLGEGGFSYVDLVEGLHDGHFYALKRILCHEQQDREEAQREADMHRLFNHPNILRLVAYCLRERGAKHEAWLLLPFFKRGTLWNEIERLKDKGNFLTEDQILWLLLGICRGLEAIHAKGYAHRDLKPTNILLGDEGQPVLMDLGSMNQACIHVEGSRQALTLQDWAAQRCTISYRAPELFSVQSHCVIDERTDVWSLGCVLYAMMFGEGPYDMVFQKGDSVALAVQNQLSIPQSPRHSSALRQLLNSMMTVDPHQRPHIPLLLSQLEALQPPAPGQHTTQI

RIOK3 (human) = RIOK3 (human) (UniProt O14730)
MAPK14 (human) = MAPK14 (human) (UniProt Q16539)
DCLK1 (human) = DCLK1 (human) (UniProt O15075)
PI4KB (human) = PI4KB (human) (UniProt Q9UBF8)
CDK18 (human) = CDK18 (human) (UniProt Q07002)
SRPK3 (human) = SRPK3 (human) (UniProt Q9UPE1)
TESK1 (human) = TESK1 (human) (UniProt Q15569)
Sequence of TESK1 (human) (Q15569 whole entry, looked up): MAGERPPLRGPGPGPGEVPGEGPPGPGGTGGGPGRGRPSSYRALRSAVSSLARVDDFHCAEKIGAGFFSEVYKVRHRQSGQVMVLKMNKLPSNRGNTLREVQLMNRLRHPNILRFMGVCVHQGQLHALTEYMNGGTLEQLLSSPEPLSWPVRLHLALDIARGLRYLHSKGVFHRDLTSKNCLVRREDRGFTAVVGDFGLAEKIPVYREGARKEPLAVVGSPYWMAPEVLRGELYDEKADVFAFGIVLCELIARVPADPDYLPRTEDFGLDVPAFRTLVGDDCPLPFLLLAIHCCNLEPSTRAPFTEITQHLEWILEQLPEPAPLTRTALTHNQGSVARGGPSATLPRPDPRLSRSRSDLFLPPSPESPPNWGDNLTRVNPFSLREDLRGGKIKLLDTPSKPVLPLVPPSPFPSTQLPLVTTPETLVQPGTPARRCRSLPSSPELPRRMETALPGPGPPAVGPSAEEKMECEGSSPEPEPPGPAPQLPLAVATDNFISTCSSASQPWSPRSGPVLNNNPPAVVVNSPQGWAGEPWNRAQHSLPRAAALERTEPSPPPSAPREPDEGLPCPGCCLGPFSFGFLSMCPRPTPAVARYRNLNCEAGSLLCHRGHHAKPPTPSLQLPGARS

INSR (human) = INSR (human) (UniProt P06213)
FES (human) = FES (human) (UniProt P07332)
[2] = molecular target: JAK1 JH1 catalytic (human) (UniProt P23458)
PRKG1 (human) = PRKG1 (human) (UniProt Q13976)
MAP2K6 (human) = MAP2K6 (human) (UniProt P52564)
Sequence of MAP2K6 (human) (P52564 whole entry, looked up): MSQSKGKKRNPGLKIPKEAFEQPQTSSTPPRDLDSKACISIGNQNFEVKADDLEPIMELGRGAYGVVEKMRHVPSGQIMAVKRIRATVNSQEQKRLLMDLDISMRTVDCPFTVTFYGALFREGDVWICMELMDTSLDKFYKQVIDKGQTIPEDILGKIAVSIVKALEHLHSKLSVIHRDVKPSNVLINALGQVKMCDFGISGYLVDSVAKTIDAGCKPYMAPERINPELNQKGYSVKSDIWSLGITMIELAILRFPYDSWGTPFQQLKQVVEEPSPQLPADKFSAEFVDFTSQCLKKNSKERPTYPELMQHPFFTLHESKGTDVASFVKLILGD

CDK13 (human) = CDK13 (human) (UniProt Q14004)
EIF2AK2 (human) = EIF2AK2 (human) (UniProt P19525)
FGFR2 (human) = FGFR2 (human) (UniProt P21802)
NIM1 (human) = NIM1 (human) (UniProt Q8IY84)
CDKL3 (human) = CDKL3 (human) (UniProt Q8IVW4)
MAPKAPK5 (human) = MAPKAPK5 (human) (UniProt Q8IW41)
NTRK2 (human) = NTRK2 (human) (UniProt Q16620)
Sequence of NTRK2 (human) (Q16620 whole entry, looked up): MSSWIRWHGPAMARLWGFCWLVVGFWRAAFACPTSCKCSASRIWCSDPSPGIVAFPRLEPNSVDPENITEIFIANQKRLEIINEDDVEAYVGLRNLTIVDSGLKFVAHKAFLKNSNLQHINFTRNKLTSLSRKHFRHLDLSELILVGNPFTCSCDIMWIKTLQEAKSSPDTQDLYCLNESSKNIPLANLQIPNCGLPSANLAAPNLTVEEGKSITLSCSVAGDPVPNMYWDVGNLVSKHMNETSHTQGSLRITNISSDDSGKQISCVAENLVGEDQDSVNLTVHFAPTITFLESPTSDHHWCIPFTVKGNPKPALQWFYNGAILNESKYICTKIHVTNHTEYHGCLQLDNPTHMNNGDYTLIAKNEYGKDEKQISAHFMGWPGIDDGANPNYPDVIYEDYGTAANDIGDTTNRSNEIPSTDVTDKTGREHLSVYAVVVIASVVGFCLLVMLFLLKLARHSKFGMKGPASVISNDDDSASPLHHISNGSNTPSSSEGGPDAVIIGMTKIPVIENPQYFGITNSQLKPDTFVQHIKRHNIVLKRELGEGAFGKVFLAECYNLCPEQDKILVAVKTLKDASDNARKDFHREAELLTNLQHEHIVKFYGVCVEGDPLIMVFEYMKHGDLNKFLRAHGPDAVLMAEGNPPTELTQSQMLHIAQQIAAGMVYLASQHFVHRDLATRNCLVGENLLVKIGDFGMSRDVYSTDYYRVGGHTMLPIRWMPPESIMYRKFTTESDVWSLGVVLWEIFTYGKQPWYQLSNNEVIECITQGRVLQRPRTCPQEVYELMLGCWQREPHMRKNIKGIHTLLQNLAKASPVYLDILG

PRPF4B (human) = PRPF4B (human) (UniProt Q13523)
Sequence of PRPF4B (human) (Q13523 whole entry, looked up): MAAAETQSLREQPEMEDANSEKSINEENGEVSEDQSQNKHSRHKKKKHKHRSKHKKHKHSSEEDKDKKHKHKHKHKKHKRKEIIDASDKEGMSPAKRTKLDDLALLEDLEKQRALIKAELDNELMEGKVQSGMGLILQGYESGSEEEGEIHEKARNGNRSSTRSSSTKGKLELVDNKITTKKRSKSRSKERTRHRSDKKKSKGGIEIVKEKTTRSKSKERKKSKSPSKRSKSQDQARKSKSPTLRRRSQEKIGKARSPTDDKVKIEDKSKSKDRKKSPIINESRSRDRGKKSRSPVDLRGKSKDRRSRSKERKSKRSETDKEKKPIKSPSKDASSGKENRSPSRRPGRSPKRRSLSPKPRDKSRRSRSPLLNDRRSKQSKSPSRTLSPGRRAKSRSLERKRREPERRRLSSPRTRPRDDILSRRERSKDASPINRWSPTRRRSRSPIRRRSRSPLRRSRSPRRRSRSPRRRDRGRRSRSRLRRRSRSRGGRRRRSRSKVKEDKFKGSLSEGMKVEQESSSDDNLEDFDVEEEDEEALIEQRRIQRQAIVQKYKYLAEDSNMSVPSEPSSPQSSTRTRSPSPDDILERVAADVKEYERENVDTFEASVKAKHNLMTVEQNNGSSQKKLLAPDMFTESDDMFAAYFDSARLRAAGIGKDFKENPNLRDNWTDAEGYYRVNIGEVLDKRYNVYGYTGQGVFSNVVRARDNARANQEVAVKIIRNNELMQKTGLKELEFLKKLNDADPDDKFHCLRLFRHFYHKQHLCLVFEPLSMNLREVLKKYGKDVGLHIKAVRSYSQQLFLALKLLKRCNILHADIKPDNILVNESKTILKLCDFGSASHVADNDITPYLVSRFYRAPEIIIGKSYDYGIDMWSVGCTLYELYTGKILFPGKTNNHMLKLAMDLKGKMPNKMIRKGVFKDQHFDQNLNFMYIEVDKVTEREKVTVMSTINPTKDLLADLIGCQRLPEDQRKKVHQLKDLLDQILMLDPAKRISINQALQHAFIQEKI

CDK9 (human) = CDK9 (human) (UniProt P50750)
Sequence of CDK9 (human) (P50750 whole entry, looked up): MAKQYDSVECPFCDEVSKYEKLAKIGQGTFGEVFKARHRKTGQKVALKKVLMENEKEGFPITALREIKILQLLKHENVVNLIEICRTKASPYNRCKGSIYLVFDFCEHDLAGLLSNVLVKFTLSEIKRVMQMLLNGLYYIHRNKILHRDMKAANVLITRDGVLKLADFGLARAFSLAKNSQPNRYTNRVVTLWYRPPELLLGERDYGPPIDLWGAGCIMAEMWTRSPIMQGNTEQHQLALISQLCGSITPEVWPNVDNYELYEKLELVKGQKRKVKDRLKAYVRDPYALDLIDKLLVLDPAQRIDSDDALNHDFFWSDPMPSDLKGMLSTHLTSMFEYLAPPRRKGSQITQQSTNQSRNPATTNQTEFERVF

[3] = system: EGFR (human), P00533 [L858R]
MARK3 (human) = MARK3 (human) (UniProt P27448)
CDK4 CCND3 (human) = CDK4 CCND3 (human) (UniProt P11802+P30281)
RPS6KA5 KD1 (human) = RPS6KA5 KD1 (human) (UniProt O75582)
PRKD2 (human) = PRKD2 (human) (UniProt Q9BZL6)
Sequence of PRKD2 (human) (Q9BZL6 whole entry, looked up): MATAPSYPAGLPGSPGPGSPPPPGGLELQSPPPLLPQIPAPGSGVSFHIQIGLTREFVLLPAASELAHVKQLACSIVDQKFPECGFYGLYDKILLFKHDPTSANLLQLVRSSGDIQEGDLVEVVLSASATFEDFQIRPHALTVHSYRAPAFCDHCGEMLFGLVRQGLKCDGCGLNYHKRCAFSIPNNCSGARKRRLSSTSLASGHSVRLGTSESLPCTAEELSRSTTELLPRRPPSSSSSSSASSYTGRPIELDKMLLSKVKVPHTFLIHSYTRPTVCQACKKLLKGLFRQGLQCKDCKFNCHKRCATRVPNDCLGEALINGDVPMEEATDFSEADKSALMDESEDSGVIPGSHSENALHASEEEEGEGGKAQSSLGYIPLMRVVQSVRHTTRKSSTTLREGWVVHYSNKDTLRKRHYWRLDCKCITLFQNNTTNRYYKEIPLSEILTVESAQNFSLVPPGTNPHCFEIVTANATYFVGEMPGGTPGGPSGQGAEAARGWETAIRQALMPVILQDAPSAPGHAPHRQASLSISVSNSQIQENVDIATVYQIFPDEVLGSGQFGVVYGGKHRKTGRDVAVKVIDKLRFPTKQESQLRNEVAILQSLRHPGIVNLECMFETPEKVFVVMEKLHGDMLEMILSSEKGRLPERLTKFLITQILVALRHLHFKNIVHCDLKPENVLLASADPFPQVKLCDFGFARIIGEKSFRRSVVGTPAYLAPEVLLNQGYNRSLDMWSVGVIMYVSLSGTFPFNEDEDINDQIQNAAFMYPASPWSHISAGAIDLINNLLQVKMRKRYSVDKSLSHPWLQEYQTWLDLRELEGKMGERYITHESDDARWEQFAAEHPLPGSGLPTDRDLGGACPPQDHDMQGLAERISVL

SYK (human) = SYK (human) (UniProt P43405)

Sequence of PAK6 (human) (Q9NQU5 whole entry, looked up): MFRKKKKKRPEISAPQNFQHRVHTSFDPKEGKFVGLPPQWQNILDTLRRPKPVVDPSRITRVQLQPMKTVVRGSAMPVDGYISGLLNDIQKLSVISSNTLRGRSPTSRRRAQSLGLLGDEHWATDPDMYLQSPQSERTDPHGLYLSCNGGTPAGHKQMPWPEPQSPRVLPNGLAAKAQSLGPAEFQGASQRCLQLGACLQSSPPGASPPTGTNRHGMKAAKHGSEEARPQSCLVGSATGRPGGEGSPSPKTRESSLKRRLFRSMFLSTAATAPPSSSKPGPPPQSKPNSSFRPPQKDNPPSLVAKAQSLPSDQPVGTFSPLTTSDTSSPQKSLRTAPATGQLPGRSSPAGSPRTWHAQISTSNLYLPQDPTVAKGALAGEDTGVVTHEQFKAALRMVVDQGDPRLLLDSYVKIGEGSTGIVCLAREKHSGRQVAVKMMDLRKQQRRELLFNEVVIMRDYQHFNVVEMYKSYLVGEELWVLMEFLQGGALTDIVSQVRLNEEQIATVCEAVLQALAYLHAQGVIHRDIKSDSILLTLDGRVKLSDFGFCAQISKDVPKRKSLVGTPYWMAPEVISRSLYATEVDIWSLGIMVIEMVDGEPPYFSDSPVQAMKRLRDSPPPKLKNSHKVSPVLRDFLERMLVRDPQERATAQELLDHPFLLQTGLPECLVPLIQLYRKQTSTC

Structure (SMILES)	kinase still bound, per cent of control (CDK19 (human))	kinase still bound, per cent of control (ADCK3 (human))	kinase still bound, per cent of control [1]	kinase still bound, per cent of control (TEC (human))	kinase still bound, per cent of control (MAP2K3 (human))	kinase still bound, per cent of control (PAK6 (human))	kinase still bound, per cent of control (EPHA8 (human))	kinase still bound, per cent of control (PLK4 (human))	kinase still bound, per cent of control (RIOK2 (human))	kinase still bound, per cent of control (EPHA1 (human))	kinase still bound, per cent of control (ULK2 (human))	kinase still bound, per cent of control (SGK110 (human))	kinase still bound, per cent of control (STK16 (human))	kinase still bound, per cent of control (RIOK3 (human))	kinase still bound, per cent of control (MAPK14 (human))	kinase still bound, per cent of control (DCLK1 (human))	kinase still bound, per cent of control (PI4KB (human))	kinase still bound, per cent of control (CDK18 (human))	kinase still bound, per cent of control (SRPK3 (human))	kinase still bound, per cent of control (TESK1 (human))	further results
COc1cc2ncnc(Nc3cccc(Cl)c3)c2cc1OC	93%	56%	94%	100%	57%	94%	38%	30%	43%	43%	87%	65%	97%	78%	63%	54%	44%	79%	93%	100%	kinase still bound, per cent of control (INSR (human)): 62%; kinase still bound, per cent of control (FES (human)): 96%; kinase still bound, per cent of control [2]: 84%; kinase still bound, per cent of control (PRKG1 (human)): 100%; kinase still bound, per cent of control (MAP2K6 (human)): 95%; kinase still bound, per cent of control (CDK13 (human)): 91%; kinase still bound, per cent of control (EIF2AK2 (human)): 52%; kinase still bound, per cent of control (FGFR2 (human)): 99%; kinase still bound, per cent of control (NIM1 (human)): 77%; kinase still bound, per cent of control (CDKL3 (human)): 76%; kinase still bound, per cent of control (MAPKAPK5 (human)): 9.9%; kinase still bound, per cent of control (NTRK2 (human)): 80%; kinase still bound, per cent of control (PRPF4B (human)): 84%; kinase still bound, per cent of control (CDK9 (human)): 100%; kinase still bound, per cent of control [3]: 0.05%; kinase still bound, per cent of control (MARK3 (human)): 100%; kinase still bound, per cent of control (CDK4 CCND3 (human)): 93%; kinase still bound, per cent of control (RPS6KA5 KD1 (human)): 100%; kinase still bound, per cent of control (PRKD2 (human)): 86%; kinase still bound, per cent of control (SYK (human)): 54%
N#Cc1cc(-c2ccnc(Nc3ccc(-n4cnc(-c5cccnc5)n4)cc3)n2)cc(N2CCOCC2)c1	88%	38%	23%	93%	18%	58%	93%	22%	1.4%	42%	90%	78%	12%	3.2%	100%	100%	100%	43%	23%	54%	kinase still bound, per cent of control (INSR (human)): 78%; kinase still bound, per cent of control (FES (human)): 91%; kinase still bound, per cent of control [2]: 59%; kinase still bound, per cent of control (PRKG1 (human)): 100%; kinase still bound, per cent of control (MAP2K6 (human)): 41%; kinase still bound, per cent of control (CDK13 (human)): 100%; kinase still bound, per cent of control (EIF2AK2 (human)): 48%; kinase still bound, per cent of control (FGFR2 (human)): 91%; kinase still bound, per cent of control (NIM1 (human)): 58%; kinase still bound, per cent of control (CDKL3 (human)): 45%; kinase still bound, per cent of control (MAPKAPK5 (human)): 100%; kinase still bound, per cent of control (NTRK2 (human)): 100%; kinase still bound, per cent of control (PRPF4B (human)): 57%; kinase still bound, per cent of control (CDK9 (human)): 2.1%; kinase still bound, per cent of control [3]: 54%; kinase still bound, per cent of control (MARK3 (human)): 100%; kinase still bound, per cent of control (CDK4 CCND3 (human)): 12%; kinase still bound, per cent of control (RPS6KA5 KD1 (human)): 100%; kinase still bound, per cent of control (PRKD2 (human)): 93%; kinase still bound, per cent of control (SYK (human)): 25%
C=CC(=O)Nc1ccc(C(=O)c2sc(Nc3ccc(N4CCN(C)CC4)cc3OC)nc2N)cc1	100%	42%	91%	98%	69%	40%	88%	43%	53%	100%	9.4%	100%	50%	61%	2.7%	5.6%	18%	100%	54%	100%	kinase still bound, per cent of control (INSR (human)): 98%; kinase still bound, per cent of control (FES (human)): 52%; kinase still bound, per cent of control [2]: 100%; kinase still bound, per cent of control (PRKG1 (human)): 74%; kinase still bound, per cent of control (MAP2K6 (human)): 96%; kinase still bound, per cent of control (CDK13 (human)): 100%; kinase still bound, per cent of control (EIF2AK2 (human)): 100%; kinase still bound, per cent of control (FGFR2 (human)): 49%; kinase still bound, per cent of control (NIM1 (human)): 91%; kinase still bound, per cent of control (CDKL3 (human)): 100%; kinase still bound, per cent of control (MAPKAPK5 (human)): 14%; kinase still bound, per cent of control (NTRK2 (human)): 100%; kinase still bound, per cent of control (PRPF4B (human)): 100%; kinase still bound, per cent of control (CDK9 (human)): 85%; kinase still bound, per cent of control [3]: 39%; kinase still bound, per cent of control (MARK3 (human)): 100%; kinase still bound, per cent of control (CDK4 CCND3 (human)): 0.55%; kinase still bound, per cent of control (RPS6KA5 KD1 (human)): 100%; kinase still bound, per cent of control (PRKD2 (human)): 70%; kinase still bound, per cent of control (SYK (human)): 100%
